The source made the active and inactive calls. No cut-off for these calls is given here.
Key:
Mus musculus [1] = assay: In vivo PROTAC activity at CRBN/SRC-3 in Balb/c mouse xenografted with tamoxifen-resistant human LCC2 cells assessed as downregulation of ER-alpha protein level in tumor tissues at 5 uM/Kg, ip administered once every 2 days for 23 days and measured on day 25 by western blot analysis; format: functional, organism-based; conditions: time 25.0 day
[2] = Bioavailability in Balb/c mouse at 4 mg/kg, ip by LC-MS/MS analysis; format: ADME, organism-based; conditions: in vivo
[3] = Induction of apoptosis in tamoxifen-resistant human LCC2 cells assessed as necrotic cells at 20 uM incubated for 48 hrs by AnnexinV-FITC/PI staining based flow cytometry (reference value: 1.16%); format: functional, Tamoxifen-resistant LCC2 cell
[4] = AUC(0 to t) in Balb/c mouse at 2 mg/kg, iv by LC-MS/MS analysis; format: ADME, organism-based; conditions: in vivo
[5] = target: Protein cereblon/Zinc finger protein Helios (Homo sapiens) (UniProt Q96SW2+Q9UKS7); assay: PROTAC activity at CRBN/IKZF2 in tamoxifen-resistant human LCC2 cells assessed as degradation of IKZF2 at 10 uM measured after 36 hrs by diaPASEF-based quantitative proteomics analysis; conditions: Tamoxifen-resistant LCC2 cell
Sequence of Protein cereblon/Zinc finger protein Helios (Homo sapiens) (Q96SW2 whole entry, looked up): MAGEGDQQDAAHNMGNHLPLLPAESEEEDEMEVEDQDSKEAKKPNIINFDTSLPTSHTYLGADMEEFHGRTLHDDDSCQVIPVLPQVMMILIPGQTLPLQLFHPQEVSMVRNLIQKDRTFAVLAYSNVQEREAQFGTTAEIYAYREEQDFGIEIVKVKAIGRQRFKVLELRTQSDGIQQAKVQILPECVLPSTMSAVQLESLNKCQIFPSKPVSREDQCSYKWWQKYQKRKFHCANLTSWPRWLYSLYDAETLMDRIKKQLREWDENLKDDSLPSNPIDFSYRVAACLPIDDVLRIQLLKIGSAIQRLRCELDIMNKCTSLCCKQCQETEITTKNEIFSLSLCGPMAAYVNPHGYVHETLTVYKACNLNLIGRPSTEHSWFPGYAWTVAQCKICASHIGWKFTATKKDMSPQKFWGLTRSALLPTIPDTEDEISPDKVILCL
Sequence of Protein cereblon/Zinc finger protein Helios (Homo sapiens) (Q9UKS7 whole entry, looked up): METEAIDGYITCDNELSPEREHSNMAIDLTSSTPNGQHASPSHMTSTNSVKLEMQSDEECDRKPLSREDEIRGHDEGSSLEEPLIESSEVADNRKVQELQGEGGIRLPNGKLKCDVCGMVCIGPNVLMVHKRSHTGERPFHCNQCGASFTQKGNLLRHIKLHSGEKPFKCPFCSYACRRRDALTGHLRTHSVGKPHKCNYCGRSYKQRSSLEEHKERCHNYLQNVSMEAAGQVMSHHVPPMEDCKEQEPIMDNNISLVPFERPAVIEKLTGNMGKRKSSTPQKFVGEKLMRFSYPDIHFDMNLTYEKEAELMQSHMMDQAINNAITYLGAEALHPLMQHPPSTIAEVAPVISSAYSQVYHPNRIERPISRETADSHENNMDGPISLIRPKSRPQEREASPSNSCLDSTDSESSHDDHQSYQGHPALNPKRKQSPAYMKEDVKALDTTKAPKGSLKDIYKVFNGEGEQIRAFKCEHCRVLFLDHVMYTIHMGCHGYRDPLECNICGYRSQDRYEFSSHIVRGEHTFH

[6] = Induction of cell cycle arrest in tamoxifen-resistant human LCC2 cells assessed as accumulation of cells at S phase at 20 uM incubated for 48 hrs by propidium iodide staining based flow cytometry (reference value: 9.72%); format: functional
[7] = target: T1, Protein cereblon/Nuclear receptor coactivator 3 (Homo sapiens, UniProt Q9Y6Q9+Q96SW2); assay: PROTAC activity at CRBN/SRC-3 in human MCF7 cells assessed as induction of SRC-3 degradation at 1 uM preincubated with proteasome inhibitor, MG-132 for 2 hrs followed by incubation with compound and measured after 36 hrs by immunoblot analysis; format: cell-based
T1 sequence (Q96SW2 whole entry partner): as the sequence (Q96SW2 whole entry, looked up) above
T1 sequence (Q9Y6Q9 2-1424 limits assumed): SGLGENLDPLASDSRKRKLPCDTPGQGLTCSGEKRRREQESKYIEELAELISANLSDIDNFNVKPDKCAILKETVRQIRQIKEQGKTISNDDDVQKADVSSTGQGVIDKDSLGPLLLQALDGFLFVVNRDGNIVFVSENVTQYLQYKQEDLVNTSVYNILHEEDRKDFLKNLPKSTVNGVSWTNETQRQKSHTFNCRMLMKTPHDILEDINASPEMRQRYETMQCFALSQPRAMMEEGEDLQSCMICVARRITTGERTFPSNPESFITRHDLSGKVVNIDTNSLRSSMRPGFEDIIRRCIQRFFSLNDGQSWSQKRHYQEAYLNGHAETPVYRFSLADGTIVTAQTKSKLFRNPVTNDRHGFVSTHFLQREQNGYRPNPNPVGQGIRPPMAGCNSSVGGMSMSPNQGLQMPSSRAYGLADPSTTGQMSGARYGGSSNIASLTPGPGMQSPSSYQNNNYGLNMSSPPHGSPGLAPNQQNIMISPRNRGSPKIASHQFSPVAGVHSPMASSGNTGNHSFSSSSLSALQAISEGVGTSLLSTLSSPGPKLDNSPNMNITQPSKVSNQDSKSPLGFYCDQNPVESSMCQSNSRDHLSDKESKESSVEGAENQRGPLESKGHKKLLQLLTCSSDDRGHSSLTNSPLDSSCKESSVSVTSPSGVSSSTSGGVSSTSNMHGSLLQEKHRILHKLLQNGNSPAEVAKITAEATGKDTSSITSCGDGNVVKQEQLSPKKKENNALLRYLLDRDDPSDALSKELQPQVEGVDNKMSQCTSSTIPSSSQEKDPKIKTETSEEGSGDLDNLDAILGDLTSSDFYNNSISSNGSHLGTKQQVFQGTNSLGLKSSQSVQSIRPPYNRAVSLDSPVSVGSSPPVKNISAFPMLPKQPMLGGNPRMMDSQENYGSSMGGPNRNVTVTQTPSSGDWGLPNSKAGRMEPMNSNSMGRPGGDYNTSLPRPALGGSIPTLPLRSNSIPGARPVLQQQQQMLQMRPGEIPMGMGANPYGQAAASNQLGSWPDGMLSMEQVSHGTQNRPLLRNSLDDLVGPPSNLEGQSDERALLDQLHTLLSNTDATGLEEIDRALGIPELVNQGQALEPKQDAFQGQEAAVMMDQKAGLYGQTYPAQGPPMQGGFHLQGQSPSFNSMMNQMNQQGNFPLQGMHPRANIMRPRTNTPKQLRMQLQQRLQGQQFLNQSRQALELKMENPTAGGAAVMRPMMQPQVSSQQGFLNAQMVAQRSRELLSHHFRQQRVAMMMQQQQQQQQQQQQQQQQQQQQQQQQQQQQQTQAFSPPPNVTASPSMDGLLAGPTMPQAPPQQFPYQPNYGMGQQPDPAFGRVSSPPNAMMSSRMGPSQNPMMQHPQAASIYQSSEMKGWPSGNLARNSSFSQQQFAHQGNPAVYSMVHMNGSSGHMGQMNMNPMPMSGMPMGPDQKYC

Mus musculus [8] = assay: In vivo PROTAC activity at CRBN/SRC-3 in Balb/c mouse xenografted with tamoxifen-resistant human LCC2 cells assessed as induction of SRC-3 degradation in tumor tissues at 5 uM/Kg, ip administered once every 2 days for 23 days and measured on day 25 by western blot analysis; format: functional, organism-based; conditions: time 25.0 day
[9] = target: T1, Protein cereblon/Nuclear receptor coactivator 3; assay: PROTAC activity at CRBN/SRC-3 in tamoxifen-resistant human LCC2 cells assessed as induction of SRC-3 degradation at 1 uM preincubated with CRBN ligand-pomolidomide for 2 hrs followed by incubation with compound and measured after 36 hrs by immunoblot analysis; format: cell-based; conditions: Tamoxifen-resistant LCC2 cell
[10] = Induction of apoptosis in tamoxifen-resistant human LCC2 cells assessed as late apoptotic cells at 5 uM incubated for 48 hrs by AnnexinV-FITC/PI staining based flow cytometry (reference value: 4.83%); format: functional, Tamoxifen-resistant LCC2 cell
[11] = target: T1, Protein cereblon/Nuclear receptor coactivator 3; assay: PROTAC activity at CRBN/SRC-3 in human MCF7 cells harboring ER-alpha Y537S mutant assessed as downregulation of ER-alpha level at 0.01 to 10 uM measured after 36 hrs by immunoblot analysis; format: cell-based; conditions: dose 0.01-10 µM
[12] = Toxicity against Balb/c mouse xenografted with tamoxifen-resistant human LCC2 cells assessed as effect on kidney pathological changes at 3 to 5 uM/Kg, ip administered once every 2 days for 23 days and measured on day 25 by Hematoxylin-Eosin based […] staining analysis; format: organism-based; conditions: in vivo, 600 h, dose 3-5 µM/Kg, time 25 day
[13] = Induction of cell cycle arrest in tamoxifen-resistant human LCC2 cells assessed as accumulation of cells at S phase at 5 uM incubated for 48 hrs by propidium iodide staining based flow cytometry (reference value: 9.72%); format: functional
[14] = Induction of cell cycle arrest in tamoxifen-resistant human LCC2 cells assessed as accumulation of cells at G1 phase at 20 uM incubated for 48 hrs by propidium iodide staining based flow cytometry (reference value: 78.71%); format: functional
MCF7 = assay: Antiproliferative activity against human MCF7 cells overexpressing EGFR assessed as inhibition of cell growth by CCK-8 assay; format: functional, cell-based
[15] = target: T1, Protein cereblon/Nuclear receptor coactivator 3; assay: PROTAC activity at CRBN/SRC-3 in tamoxifen-resistant human LCC2 cells assessed as induction of SRC-3 degradation at 1 uM incubated for 9 hrs by immunoblot analysis; format: cell-based; conditions: Tamoxifen-resistant LCC2 cell
[16] = Half life in Balb/c mouse at 20 mg/kg, po by LC-MS/MS analysis; format: ADME, organism-based; conditions: in vivo
[17] = target: T1, Protein cereblon/Nuclear receptor coactivator 3; assay: PROTAC activity at CRBN/SRC-3 in human MCF-7 cells harboring Y537S mutant assessed as induction of SRC-3 degradation measured after 36 hrs by immunoblot analysis; format: cell-based; conditions: MCF7, dose 0.01-10 µM
[18] = Induction of apoptosis in tamoxifen-resistant human LCC2 cells assessed as viable cells at 20 uM incubated for 48 hrs by AnnexinV-FITC/PI staining based flow cytometry (reference value: 88.09%); format: functional; conditions: Tamoxifen-resistant LCC2 cell, read-out: Activity
[19] = Toxicity against Balb/c mouse xenografted with tamoxifen-resistant human LCC2 cells assessed as effect on spleen pathological changes at 3 to 5 uM/Kg, ip administered once every 2 days for 23 days and measured on day 25 by Hematoxylin-Eosin based […] staining analysis; format: organism-based; conditions: in vivo, 600 h, dose 3-5 µM/Kg, time 25 day
[20] = target: T1, Protein cereblon/Nuclear receptor coactivator 3; assay: PROTAC activity at CRBN/SRC-3 in human MCF7 cells overexpressing EGFR assessed as downregulation of ER-alpha level at 0.01 to 10 uM measured after 36 hrs by immunoblot analysis; format: cell-based; conditions: dose 0.01-10 µM

For `C/C(=N\Nc1nc2ccccc2n1C1CN(C2CCN(c3cccc4c3C(=O)N(C3CCC(=O)NC3=O)C4=O)CC2)C1)c1ccccn1` (stereo unspecified), the Activity (Mus musculus [1]) was “Active”, the bioavailability [2] was 8% and the Activity [3] was 10.9%. For the same compound, the AUC(0-t) [4] was 318 ng·h/mL, the Activity [5] was “inactive” and the Activity [6] was 11.58%. For the same compound, the Activity [7] was “inactive”, the Activity (Mus musculus [8]) was “Active” and the Activity [9] was “inactive”. For the same compound, the Activity [10] was 24.79%, the Activity [11] was “Active” and the Activity [12] was “Non-toxic”. For the same compound, the Activity [13] was 14.53%, the Activity [14] was 85.05% and the IC50 (MCF7) was 70 nM. The Activity [15] was “Active”, the half-life [16] was 4.49 h and the Activity [17] was “Dose-dependent-effect”. The viability at 20 µM [18] was 42.7%, the Activity [19] was “Non-toxic” and the Activity [20] was “Active”.

From ChEMBL document CHEMBL6178017, “Intercepting the Downstream of the Estrogen Receptor Signaling Pathway: Discovery of a Potent and Efficient SRC-3 PROTAC Degrader for Overcoming Endocrine Resistance Breast Cancer” (J Med Chem, 2025)
